Measurements published in PubChem BioAssay AID493128 (Sanford-Burnham Center for Chemical Genomics, 2011).
Active and inactive are the calls of the source. The rule behind the calls is not given here.

Each compound was assayed against intestinal alkaline phosphatase Alpi (Mus musculus) (assay: mouse IAP enzyme activators, SAR follow-up, human IAP activator project, biochemical (AID 493128)). Settings: purified mouse IAP enzyme activity, activation.

SMILES	EC50	IC50 (inhibition of IAP activity)
O=C(NNC(=S)NC(=O)c1ccccc1[N+](=O)[O-])c1ccccc1O	> 100 µM (inactive)	–
CN(C)c1ccc(/C=N/NC(=O)C(=O)N/N=C/c2ccc(N(C)C)cc2)cc1	> 100 µM (inactive)	–
Cc1ccc(O)c(C=NNC(=O)c2[nH]ncc2Br)c1	> 100 µM (inactive)	–
C/C(=N\NC(=O)c1[nH]nc2c1CCc1ccccc1-2)c1ccccc1O	> 100 µM (inactive)	–
CC(C)Oc1ccccc1/C=N/NC(=O)C(=O)N/N=C/c1ccccc1OC(C)C	> 100 µM (inactive)	–
CCOc1cccc(C=NNC(=O)c2cc(C3CC3)[nH]n2)c1O	> 100 µM (inactive)	–
Cc1cc(C(=O)N/N=C\c2cc(C(C)(C)C)ccc2O)n[nH]1	> 100 µM (inactive)	–
O=C(N/N=C/c1cc(Br)ccc1O)C(=O)N/N=C/c1cc(Br)ccc1O	> 100 µM (inactive)	–
COc1cc(/C=N/NC(=O)C(=O)N/N=C/c2cc(OC)c(OC)c(OC)c2)cc(OC)c1OC	> 100 µM (inactive)	–
CC(=O)Nc1ccc(/C=N/NC(=O)C(=O)N/N=C/c2ccc(NC(C)=O)cc2)cc1	> 100 µM (inactive)	–
N#CCOc1ccccc1/C=N/NC(=O)C(=O)N/N=C/c1ccccc1OCC#N	> 100 µM (inactive)	–
O=C(N/N=C/c1ccccc1O)c1n[nH]c2c1CCC2	> 100 µM (inactive)	–
O=C(N/N=C/c1ccccc1O)c1cc(C2CC2)[nH]n1	> 100 µM (inactive)	–
COc1ccc(-c2csc(Nc3cccc4ccccc34)n2)cc1F	> 100 µM (inactive)	–
COc1cccc(C=NNC(=O)C(=O)NN=Cc2cccc(OC)c2OC)c1OC	> 100 µM (inactive)	–
Cc1cc(C(=O)NN=Cc2cc(Cl)cc([N+](=O)[O-])c2O)n[nH]1	> 100 µM (inactive)	–
Cn1cccc1-c1cc(C(=O)NN=Cc2cc(Br)ccc2O)[nH]n1	> 100 µM (inactive)	–
COc1cccc(C=NNC(=O)C(=O)NN=Cc2cccc(OC)c2O)c1O	> 100 µM (inactive)	–
O=C(N/N=C/c1cc(Br)ccc1O)c1cc(C2CC2)[nH]n1	> 100 µM (inactive)	–

SMILES	EC50	IC50 (inhibition of IAP activity)
COc1cccc(C=NNC(=O)c2cc(-c3cccn3C)n[nH]2)c1O	> 100 µM (inactive)	–
O=C(N/N=C/c1c(O)ccc2ccccc12)c1cc(-c2cccs2)[nH]n1	> 100 µM (inactive)	–
OC(c1nc2ccc(F)cc2[nH]1)C(O)c1nc2ccc(F)cc2[nH]1 (stereo unspecified)	> 100 µM (inactive)	–
C/C(=N\NC(=O)c1cc(C)[nH]n1)c1ccc2ccccc2c1O	> 100 µM (inactive)	–
O=C(N/N=C/c1ccc(O)cc1)C(=O)N/N=C/c1ccc(O)cc1	> 100 µM (inactive)	–
CC1C(=O)NN=C1C(=O)NN=Cc1ccc(O)cc1O (stereo unspecified)	> 100 µM (inactive)	–
O=C(NN=Cc1ccccc1)C(=O)NN=Cc1ccccc1	> 100 µM (inactive)	–
O=C(NC(=S)NNC(=O)c1ccccc1O)c1ccc(F)cc1	> 100 µM (inactive)	–
O=C(NN=Cc1ccc(O)cc1O)C(=O)NN=Cc1ccc(O)cc1O	> 100 µM (inactive)	–
CC(=O)Nc1cccc(C(=O)NNC(=O)c2n[nH]c(=O)c3ccccc23)c1	> 100 µM (inactive)	–
CCOc1cccc(C=NNC(=O)c2cc(-c3cccn3C)n[nH]2)c1O	> 100 µM (inactive)	–
CCOc1cc(/C=N/NC(=O)C(=O)N/N=C/c2ccc(O)c(OCC)c2)ccc1O	> 100 µM (inactive)	–
Cc1cc(C(=O)NN=Cc2cccc([N+](=O)[O-])c2O)n[nH]1	> 100 µM (inactive)	–
O=C1Nc2ccc(Br)cc2C12NNc1ccccc1O2 (stereo unspecified)	–	0.382 µM
CC(=NNC(=O)C(=O)NN=C(C)c1cccc(O)c1)c1cccc(O)c1	> 100 µM (inactive)	–
Cc1ccc(-c2cc(C(=O)NN=Cc3ccccc3O)n[nH]2)o1	> 100 µM (inactive)	–
COc1cc(/C=N\NC(=O)C(=O)N/N=C/c2cc(OC)c(O)c(OC)c2)cc(OC)c1O	> 100 µM (inactive)	–
O=C(CCN1C(=O)/C(=C/c2ccccc2Cl)SC1=S)NNC(=O)c1ccccc1O	> 100 µM (inactive)	–
COc1ccc(/C=N/NC(=O)C(=O)N/N=C/c2ccc(OC)c(OC)c2)cc1OC	> 100 µM (inactive)	–

SMILES	EC50	IC50 (inhibition of IAP activity)
COc1cc(OC)c(OC)cc1/C=N/NC(=O)C(=O)N/N=C/c1cc(OC)c(OC)cc1OC	> 100 µM (inactive)	–
COc1cccc(C=NNC(=O)C2=NNC(=O)C2C)c1O (stereo unspecified)	> 100 µM (inactive)	–
CC(C)C(=O)NC(=S)Nc1ccccc1C(=O)Nc1ccccc1	> 100 µM (inactive)	–
O=C(N/N=C\c1cccc(O)c1)C(=O)N/N=C/c1cccc(O)c1	> 100 µM (inactive)	–
Cc1cc(C(=O)N/N=C/c2cc(Br)ccc2O)n[nH]1	> 100 µM (inactive)	–
CCN(CC)c1ccc(/C=N/NC(=O)C(=O)N/N=C/c2ccc(N(CC)CC)cc2O)c(O)c1	> 100 µM (inactive)	–
COc1ccc(OC)c(/C=N/NC(=O)C(=O)N/N=C/c2cc(OC)ccc2OC)c1	> 100 µM (inactive)	–
COC(=O)c1ccc(/C=N/NC(=O)C(=O)N/N=C/c2ccc(C(=O)OC)cc2)cc1	> 100 µM (inactive)	–
O=C(N/N=C\c1ccc2c(c1)OCO2)C(=O)N/N=C/c1ccc2c(c1)OCO2	> 100 µM (inactive)	–
O=C(N/N=C/c1ccc2c(c1)OCO2)C(=O)N/N=C/c1ccc2c(c1)OCO2	> 100 µM (inactive)	–
O=C(NN=Cc1c(O)ccc2ccccc12)c1[nH]ncc1Br	> 100 µM (inactive)	–
O=C(N/N=C/c1ccccc1C(=O)O)C(=O)N/N=C/c1ccccc1C(=O)O	> 100 µM (inactive)	–
COc1cccc(C=NNC(=O)c2[nH]nc3c2CCc2ccccc2-3)c1O	> 100 µM (inactive)	–
COc1ccc(-c2cc(C(=O)NN=Cc3c(O)ccc4ccccc34)[nH]n2)cc1	> 100 µM (inactive)	–
COc1cc(/C=N/NC(=O)C(=O)N/N=C/c2ccc(O)c(OC)c2)ccc1O	> 100 µM (inactive)	–
CCCCOc1ccc(/C=N/NC(=O)C(=O)N/N=C/c2ccc(OCCCC)cc2)cc1	> 100 µM (inactive)	–
COc1cc(OC)cc(C(=O)NNC(=O)c2nn(C)c(=O)c3ccccc23)c1	> 100 µM (inactive)	–
O=C(N/N=C/c1c(O)ccc2ccccc12)C(=O)N/N=C/c1c(O)ccc2ccccc12	> 100 µM (inactive)	–
